Experimental findings from US12037324B2, “Biarylmethyl heterocycles” (Université de Montréal, priority 2016, dated 2024) are described below.

As a reminder, the pEC50 is −log10 of the EC50, conventionally taken in molar units.

Structures are written as SMILES. pEC50: −log10 of the molar value.

The target in experiment [1] is T1, hAT1R (Homo sapiens, UniProt P30556).
T1 sequence (P30556 1-359): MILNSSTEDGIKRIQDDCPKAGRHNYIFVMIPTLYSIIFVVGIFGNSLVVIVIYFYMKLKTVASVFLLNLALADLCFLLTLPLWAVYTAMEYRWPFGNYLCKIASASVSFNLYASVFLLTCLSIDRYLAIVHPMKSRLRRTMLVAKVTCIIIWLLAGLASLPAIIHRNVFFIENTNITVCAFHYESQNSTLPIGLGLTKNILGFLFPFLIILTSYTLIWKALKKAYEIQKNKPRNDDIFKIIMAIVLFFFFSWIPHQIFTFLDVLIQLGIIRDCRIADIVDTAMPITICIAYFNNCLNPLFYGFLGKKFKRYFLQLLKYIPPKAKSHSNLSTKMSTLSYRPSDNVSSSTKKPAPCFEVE
Put plainly: cell-based. The settings on record: agonist mode; for pEC50: read-out: BRET P63 EC50.

Experiment [2] addresses T2, AGTR1 (Homo sapiens, UniProt P30556).
T2 construct: host or cells: Pathunter CHO-K1 AGTR1 β-arrestin cell line (CHO-K1)
T2 sequence (P30556 1-359): T1 sequence (P30556 1-359)
The experiment can be described thus: DiscoveRx β-arrestin2 recruitment assay (enzyme complementation, Pathunter CHO-K1 AGTR1 β-arrestin cell line). The format is cell-based. The note with it: DiscoveRx β-arrestin2 recruitment; for DiscoveRx β-arrestin2 Ymax (%): maximal response. The procedure, abridged: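 Chemiluminescent enzyme-complementation read-out of β-arrestin2 recruitment to AGTR1 in engineered CHO-K1 cells after 90 min compound exposure at 37° C. Values are 4-parameter logistic EC50s in agonist mode, IC50s in antagonist mode, with efficacy relative to the maximal All response.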

The target in experiment [3] is T1, hAT1R. Put plainly: BRET β-arrestin2 biosensor assay, higher receptor expression (hAT1R 5 ng/well), HEK293 cells. In kind it is cell-based. The settings on record: for pEC50: High AT1R Expression.
The target of experiment [4] is T1, hAT1R. The experiment can be described thus: cell-based.
The target of experiment [5] is T2, AGTR1. The experiment can be described thus: DiscoveRx IP1 accumulation assay (HTRF), agonist mode, Pathunter CHO-K1 AGTR1 β-arrestin cell line. In kind it is cell-based. The settings on record: for pEC50: read-out: IP-1 EC50. The procedure, abridged:
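Agonist mode in CHO-K1 AGTR1 β-arrestin cells plated 14-16 h before; compounds at varying concentrations for 90 min at 37° C, IP1 accumulation read by HTRF (D2-conjugate and anti-IP1 cryptate, 20 min room temperature). EC50 from 4-parameter logistic fit; activity given as percentage of maximal AII effect.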

Where [6] appears, read: Low AT1R Expression, read-out: BRET β-Arrestin2 Low AT1R Expression EC50.
The mark [7] stands for this setting: section of the 42nd table ending at r951, example numbering restarts after the DiscoveRx section, read-out: β-arrestin2 EC50.

Take `CCC1=NC2(CCCC2)C(=O)N1Cc1ccc(-c2cc(-c3ccccc3)ccc2-c2nn[nH]n2)cc1` [Example 112, 3-((6′-(2H-tetrazol-5-yl)-[1,1′:3′,1″-terphenyl]-4-yl)methyl)-2-ethyl-1,3-diazaspiro[4.4]non-1-en-4-one]: on hAT1R [1], the “BRET P63 Ymax” value worked out at 8.2% and the pEC50 was 7.33. In addition, on AGTR1 [2], the pEC50 was 6.91 and the “DiscoveRx β-arrestin2 Ymax (%)” value worked out at 33.4%. In addition, at hAT1R [3], the “BRET β-Arrestin2 High AT1R Expression Ymax (%)” value stood at 78.5% and the pEC50 was 7.51. Further, on hAT1R [4] (Low AT1R Expression), the “BRET β-Arrestin2 Low AT1R Expression Ymax (%)” value is reported as 39.3%. Also, the negative logarithm of the EC50 (pEC50) at hAT1R [4] (setting [6]) was 6.76. Also, on AGTR1 [5], the “IP-1 Ymax (%)” value is reported as 7.7% and the pEC50 was 6.55.
In the case of `CCc1nc2c(C)cc(C)nc2n1Cc1ccc(-c2cc(-c3ccccc3O)ccc2-c2nnn[nH]2)cn1` [Example 178], at hAT1R [1], the “BRET P63 Ymax” value came out at 19.6% and the pEC50 is 7.59. Moreover, on AGTR1 [2], the negative logarithm of the EC50 (pEC50) was 8.15 and the “DiscoveRx β-arrestin2 Ymax (%)” value came to 75.6%. For the same compound, at hAT1R [3], the “BRET β-Arrestin2 High AT1R Expression Ymax (%)” value amounted to 89.3% and the pEC50 is 8.32. The negative logarithm of the EC50 (pEC50) on hAT1R [4] (setting [7]) is 7.71. Moreover, on AGTR1 [5], the “IP-1 Ymax (%)” value was 20.8% and the pEC50 is 7.67.
As for `CCCCC1=NC2(CCCC2)C(=O)N1Cc1ccc(-c2cc(-c3ccccc3)ccc2-c2nn[nH]n2)cc1` [Example 33], the pEC50 is under 5.00 at hAT1R [1]; 8.01 on AGTR1 [2]; 7.78 at hAT1R [3]; 7.57 at hAT1R [4] (setting [6]); 7.09 on AGTR1 [5]. For the same compound, the “DiscoveRx β-arrestin2 Ymax (%)” value on AGTR1 [2] is given as 29.9%. On hAT1R [3], the “BRET β-Arrestin2 High AT1R Expression Ymax (%)” value turned out to be 83.0%. At hAT1R [4] (Low AT1R Expression), the “BRET β-Arrestin2 Low AT1R Expression Ymax (%)” value amounted to 27.5%. Moreover, the “IP-1 Ymax (%)” value at AGTR1 [5] is reported as 3.3%.
As to `CCc1nc2c(C)cc(C)nc2n1Cc1ccc(-c2cc(-c3cccc(C)c3)ccc2C(=O)O)cn1` [Example 195, 3-(6-((2-ethyl-5,7-dimethyl-3H-imidazo[4,5-b]pyridin-3-yl)methyl)pyridin-3-yl)-3′-methylbiphenyl-4-carboxylic acid], at hAT1R [1], the “BRET P63 Ymax” value is 13.6% and the negative logarithm of the EC50 (pEC50) is 6.58. Further, on AGTR1 [2], the pEC50 is 6.16 and the “DiscoveRx β-arrestin2 Ymax (%)” value came to 77.6%. For the same compound, on hAT1R [3], the “BRET β-Arrestin2 High AT1R Expression Ymax (%)” value is 87.0% and the pEC50 is 7.00. On hAT1R [4] (setting [7]), the pEC50 was 6.55. At AGTR1 [5], the “IP-1 Ymax (%)” value worked out at 5.3% and the pEC50 is 6.45.
For `CCc1nc2c(C)cc(C)nc2n1Cc1ccc(-c2cc(-c3ccc(CO)cc3)ccc2C(=O)O)cc1` [Example 183], the “BRET P63 Ymax” value on hAT1R [1] came out at 13.2%. For the same compound, the negative-log EC50 (pEC50) on hAT1R [1] is 6.75; at AGTR1 [2], 7.18; on hAT1R [3], 7.20; on hAT1R [4] (setting [7]), 6.86; at AGTR1 [5] it was 6.70. Further, the “DiscoveRx β-arrestin2 Ymax (%)” value at AGTR1 [2] came to 36.2%. Further, on hAT1R [3], the “BRET β-Arrestin2 High AT1R Expression Ymax (%)” value stood at 90.0%. In addition, the “IP-1 Ymax (%)” value at AGTR1 [5] came to 14.1%.
For `CCc1nc2c(C)cc(C)nc2n1Cc1ccc(-c2cc(-c3ccccc3)ccc2-c2noc(=S)[nH]2)cc1` [Example 72, 3-(4″-((2-ethyl-5,7-dimethyl-3H-imidazo[4,5-b]pyridin-3-yl)methyl)-[1,1′:3′,1″-terphenyl]-4′-yl)-1,2,4-oxadiazole-5(4H)-thione], on hAT1R [1], the “BRET P63 Ymax” value was 11.8% and the pEC50 is 7.37. At AGTR1 [2], the pEC50 was 7.65 and the “DiscoveRx β-arrestin2 Ymax (%)” value is reported as 63.6%. On hAT1R [3], the “BRET β-Arrestin2 High AT1R Expression Ymax (%)” value is on record as 85.8% and the negative-log EC50 (pEC50) is 7.48. Also, the “BRET β-Arrestin2 Low AT1R Expression Ymax (%)” value at hAT1R [4] (Low AT1R Expression) came to 44.4%. The pEC50 on hAT1R [4] (setting [6]) was 7.24. In addition, on AGTR1 [5], the “IP-1 Ymax (%)” value turned out to be 8.5% and the pEC50 is 7.04.
